System: P. acnes
Assay: Agar dilution method, growth of P. acnes and MIC, combinations with a fatty acid spike
Format: cell-based, Propionibacterium acnes
Design: key to Growth Index Plate 1 / Growth Index Plate 2 / Growth Index Plate 3 / Growth Index Avg: +++: confluent growth (comparable to control); ++: less confluent growth; +: marked reduction in growth to multiple tiny, single colonies; −: no growth present
Description: Several compounds including fatty acids such as DGLA, 15-OHEPA, and 15-HETrE were tested to determine their capacity to inhibit the growth of P. acnes. In an exemplary method, an agar dilution method was used to determine the minimum inhibitory concentration (MIC) of each tested compound. Briefly, the agar dilution method involved preparing a series of concentrations of each compound (e.g., nicotinamide, benzoyl peroxide, adapalene, metronidazole, DGLA, 15-OHEPA, and 15-HETrE) in a Reinforced Clostridial Agar (RCA) media that facilitates growth of P. acnes under anaerobic conditions. An inoculum of P. acnes was prepared by incubation of P. acnes for approximately seven days at 35-37° C. to achieve a ≧1.0 OD600 inoculum of P. acnes in RCM broth. A portion of this inoculum was then added to the surface of each plate as a 10 μL spot and incubated at 35-37° C. for 72 hours or more. Growth of P. acnes was then observed and compared to control plates in which no compound has been added, and positive inhibition plates prepared with erythromycin. […] The growth of P. acnes in the presence of nicotinamide, benzoyl peroxide, adapalene, metronidazole, DGLA, 15-OHEPA, and 15-HETrE was determined with varying concentrations of the compound (see, Table 2). Next, the MIC was determined as the concentration at which a marked reduction (+) occurs in the appearance of growth on the test plate (as per Clinical and Laboratory Standards Institute M11-A7).
The compounds tested singly in Example 1 were tested in combination with one another to determine the capacity of the combination to inhibit the growth of P. acnes. In an exemplary method, the MIC was determined for each of the combination as described in Example 1. Briefly, test combinations included DGLA with nicotinamide, benzoyl peroxide, adapalene, or metronidazole; 15-HETrE with nicotinamide, benzoyl peroxide, adapalene, or metronidazole; and 15-OHEPA with nicotinamide, benzoyl peroxide, adapalene, or metronidazole. The tables below show the growth of P. acnes in the presence of 0.4 or 1.0 mg/mL DGLA with varying concentrations of nicotinamide, benzoyl peroxide, adapalene, or metronidazole (Table 3); the growth of P. acnes in the presence of 0.01 or 0.05 mg/mL 15-HETrE with varying concentrations of nicotinamide, benzoyl peroxide, adapalene, or metronidazole (Table 5); and the growth of P. acnes in the presence of 0.5 or 0.1 mg/mL 15-OHEPA with varying concentrations of nicotinamide, benzoyl peroxide, adapalene, or metronidazole (Table 7).

[1] = compound at 0.2 mg/mL + 0.01 mg/mL 15-HETrE
[2] = compound at 0.2 mg/mL + 0.05 mg/mL 15-HETrE
[3] = compound at 0.2 mg/mL + 0.05 mg/mL 15-OHEPA
[4] = compound at 0.2 mg/mL + 0.1 mg/mL 15-OHEPA
[5] = compound at 0.2 mg/mL + 0.4 mg/mL dGLA
[6] = compound at 0.2 mg/mL + 1.0 mg/mL dGLA
[7] = compound at 0.4 mg/mL + 0.01 mg/mL 15-HETrE
[8] = compound at 0.4 mg/mL + 0.05 mg/mL 15-HETrE
[9] = compound at 0.4 mg/mL + 0.05 mg/mL 15-OHEPA
[10] = compound at 0.4 mg/mL + 0.1 mg/mL 15-OHEPA
[11] = compound at 0.4 mg/mL + 0.4 mg/mL dGLA
[12] = compound at 0.4 mg/mL + 1.0 mg/mL dGLA
[13] = compound at 0.6 mg/mL + 0.01 mg/mL 15-HETrE
[14] = compound at 0.6 mg/mL + 0.05 mg/mL 15-HETrE
[15] = compound at 0.6 mg/mL + 0.05 mg/mL 15-OHEPA
[16] = compound at 0.6 mg/mL + 0.1 mg/mL 15-OHEPA
[17] = compound at 0.6 mg/mL + 0.4 mg/mL dGLA
[18] = compound at 0.6 mg/mL + 1.0 mg/mL dGLA
[19] = compound at 0.8 mg/mL + 0.01 mg/mL 15-HETrE
[20] = compound at 0.8 mg/mL + 0.05 mg/mL 15-HETrE
[21] = compound at 0.8 mg/mL + 0.05 mg/mL 15-OHEPA
[22] = compound at 0.8 mg/mL + 0.1 mg/mL 15-OHEPA
[23] = compound at 0.8 mg/mL + 0.4 mg/mL dGLA
[24] = compound at 0.8 mg/mL + 1.0 mg/mL dGLA
[25] = compound at 1.0 mg/mL + 0.01 mg/mL 15-HETrE
[26] = compound at 1.0 mg/mL + 0.05 mg/mL 15-HETrE
[27] = compound at 1.0 mg/mL + 0.05 mg/mL 15-OHEPA
[28] = compound at 1.0 mg/mL + 0.1 mg/mL 15-OHEPA
[29] = compound at 1.0 mg/mL + 0.4 mg/mL dGLA
[30] = compound at 1.0 mg/mL + 1.0 mg/mL dGLA

O=C(OOC(=O)c1ccccc1)c1ccccc1 [Benzoyl Peroxide]
−: Growth Index Avg [2] | Growth Index Plate 1 [2] | Growth Index Plate 2 [2] | Growth Index Plate 3 [2] | Growth Index Avg [4] | Growth Index Plate 1 [4] | Growth Index Plate 2 [4] | Growth Index Plate 3 [4] | Growth Index Avg [8] | Growth Index Plate 1 [8] | Growth Index Plate 2 [8] | Growth Index Plate 3 [8] | Growth Index Avg [10] | Growth Index Plate 1 [10] | Growth Index Plate 2 [10] | Growth Index Plate 3 [10] | Growth Index Avg [11] | Growth Index Plate 2 [11] | Growth Index Plate 3 [11] | Growth Index Avg [12] | Growth Index Plate 1 [12] | Growth Index Plate 3 [12] | Growth Index Avg [14] | Growth Index Plate 1 [14] | Growth Index Plate 2 [14] | Growth Index Plate 3 [14] | Growth Index Avg [16] | Growth Index Plate 1 [16] | Growth Index Plate 2 [16] | Growth Index Plate 3 [16] | Growth Index Avg [17] | Growth Index Plate 1 [17] | Growth Index Plate 2 [17] | Growth Index Plate 3 [17] | Growth Index Avg [18] | Growth Index Plate 1 [18] | Growth Index Plate 2 [18] | Growth Index Plate 3 [18] | Growth Index Avg [20] | Growth Index Plate 1 [20] | Growth Index Plate 2 [20] | Growth Index Plate 3 [20] | Growth Index Avg [21] | Growth Index Plate 1 [21] | Growth Index Plate 2 [21] | Growth Index Plate 3 [21] | Growth Index Avg [22] | Growth Index Plate 1 [22] | Growth Index Plate 2 [22] | Growth Index Plate 3 [22] | Growth Index Avg [23] | Growth Index Plate 1 [23] | Growth Index Plate 2 [23] | Growth Index Plate 3 [23] | Growth Index Avg [24] | Growth Index Plate 1 [24] | Growth Index Plate 2 [24] | Growth Index Plate 3 [24] | Growth Index Avg [25] | Growth Index Plate 1 [25] | Growth Index Plate 2 [25] | Growth Index Plate 3 [25] | Growth Index Avg [26] | Growth Index Plate 1 [26] | Growth Index Plate 2 [26] | Growth Index Plate 3 [26] | Growth Index Avg [27] | Growth Index Plate 1 [27] | Growth Index Plate 2 [27] | Growth Index Plate 3 [27] | Growth Index Avg [28] | Growth Index Plate 1 [28] | Growth Index Plate 2 [28] | Growth Index Plate 3 [28] | Growth Index Avg [29] | Growth Index Plate 1 [29] | Growth Index Plate 2 [29] | Growth Index Plate 3 [29] | Growth Index Avg [30] | Growth Index Plate 1 [30] | Growth Index Plate 2 [30] | Growth Index Plate 3 [30]
+: Growth Index Plate 3 [6] | Growth Index Plate 1 [11] | Growth Index Plate 2 [12] | Growth Index Avg [15] | Growth Index Plate 1 [15] | Growth Index Plate 2 [15] | Growth Index Plate 3 [15] | Growth Index Avg [19] | Growth Index Plate 1 [19] | Growth Index Plate 2 [19] | Growth Index Plate 3 [19]
did not reduce the growth: growth of P. Acnes in combination with 15-HETrE, compared with 15-HETrE used alone (in combination with 15-HETrE)
+++: Growth Index Avg [1] | Growth Index Plate 1 [1] | Growth Index Plate 2 [1] | Growth Index Plate 3 [1] | Growth Index Avg [3] | Growth Index Plate 1 [3] | Growth Index Plate 2 [3] | Growth Index Plate 3 [3] | Growth Index Avg [5] | Growth Index Plate 1 [5] | Growth Index Plate 2 [5] | Growth Index Plate 3 [5] | Growth Index Avg [7] | Growth Index Plate 1 [7] | Growth Index Plate 2 [7] | Growth Index Plate 3 [7]
++: Growth Index Avg [6] | Growth Index Plate 1 [6] | Growth Index Plate 2 [6] | Growth Index Avg [9] | Growth Index Plate 1 [9] | Growth Index Plate 2 [9] | Growth Index Plate 3 [9] | Growth Index Avg [13] | Growth Index Plate 1 [13] | Growth Index Plate 2 [13] | Growth Index Plate 3 [13]

From patent US20130274338A1, “PHARMACEUTICAL COMPOSITIONS COMPRISING DGLA, 15-OHEPA, AND/OR 15-HETRE AND METHODS OF REDUCING SEBUM PRODUCTION USING SAME” (priority 2012, published 2013)
